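How tested: cells in 96-well plates exposed to compound for 48 hours at five concentrations. At the TGI there is no net growth.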
What was measured:
Assay in all cases: inhibition of tumour cell growth, NCI panel, 48 h
[1] = tested on: KM12 colon
[2] = tested on: UACC-62 melanoma
[3] = tested on: SK-OV-3 ovarian
[4] = tested on: SNB-19 CNS
[5] = tested on: BT-549 breast
[6] = tested on: SW-620 colon
[7] = tested on: UACC-257 melanoma
[8] = tested on: SK-MEL-5 melanoma
[9] = tested on: T-47D breast
[10] = tested on: LOX IMVI melanoma
[11] = tested on: K-562 leukemia
[12] = tested on: OVCAR-3 ovarian
[13] = tested on: OVCAR-5 ovarian
[14] = tested on: RXF 393 renal
[15] = tested on: HL-60(TB) leukemia
[16] = tested on: PC-3 prostate
[17] = tested on: MDA-N
[18] = tested on: SNB-75 CNS
[19] = tested on: HCT-116 colon
[20] = tested on: NCI-H522 lung
[21] = tested on: MCF7 breast
[22] = tested on: SR leukemia
[23] = tested on: NCI-H23 lung
[24] = tested on: HOP-62 NSCLC
[25] = tested on: A549 NSCLC
[26] = tested on: SK-MEL-28 melanoma
[27] = tested on: OVCAR-4 ovarian
[28] = tested on: MDA-MB-231 breast
[29] = tested on: RPMI-8226 leukemia
[30] = tested on: SF-268 CNS
[31] = tested on: DU-145 prostate
[32] = tested on: SN12C renal
[33] = tested on: IGROV1 ovarian
[34] = tested on: COLO 205 colon
[35] = tested on: SF-295 CNS
[36] = tested on: EKVX NSCLC
[37] = tested on: CCRF-CEM leukemia
[38] = tested on: NCI-H460 lung
[39] = tested on: HCT-15 colon
[40] = tested on: ACHN renal
[41] = tested on: NCI-H226 lung
[42] = tested on: CAKI-1 renal
[43] = tested on: M14 melanoma
[44] = tested on: HCC-2998 colon
[45] = tested on: UO-31 renal
[46] = tested on: MALME-3M melanoma
[47] = tested on: SK-MEL-2 melanoma
[48] = tested on: HS 578T breast
[49] = tested on: OVCAR-8 ovarian
[50] = tested on: A498 renal
[51] = tested on: SF-539 CNS
[52] = tested on: 786-0 renal
[53] = tested on: MOLT-4 leukemia
[54] = tested on: HT29 colon
[55] = tested on: TK-10 renal
[56] = tested on: U251 CNS
[57] = tested on: MDA-MB-435
[58] = tested on: NCI/ADR-RES ovarian
[59] = tested on: HOP-92 NSCLC

CN(C)CCNC(=O)c1cc([N+](=O)[O-])ccn1
TGI [1]: > 100 µM | TGI [2]: 42.3 µM | TGI [3]: > 100 µM | TGI [4]: > 100 µM | TGI [5]: > 100 µM | TGI [6]: > 100 µM | TGI [7]: 29.8 µM | TGI [8]: 41.5 µM | TGI [9]: 78.1 µM | TGI [10]: 96.9 µM | TGI [11]: 52.2 µM | TGI [12]: 56.2 µM | TGI [13]: > 100 µM | TGI [14]: > 100 µM | TGI [15]: 46.4 µM | TGI [16]: 61.4 µM | TGI [17]: 30.7 µM | TGI [18]: > 100 µM | TGI [19]: 61.4 µM | TGI [20]: 37.2 µM | TGI [21]: 31.3 µM | TGI [22]: > 100 µM | TGI [23]: 47.1 µM | TGI [24]: > 100 µM | TGI [25]: > 100 µM | TGI [26]: > 100 µM | TGI [27]: 43 µM | TGI [28]: 58.1 µM | TGI [29]: > 100 µM | TGI [30]: 70.7 µM | TGI [31]: > 100 µM | TGI [32]: 64 µM | TGI [33]: > 100 µM | TGI [34]: 26.3 µM | TGI [35]: 93.9 µM | TGI [36]: > 100 µM | TGI [37]: 91.8 µM | TGI [38]: > 100 µM | TGI [39]: 41 µM | TGI [40]: > 100 µM | TGI [41]: > 100 µM | TGI [42]: > 100 µM | TGI [43]: > 100 µM | TGI [44]: > 100 µM | TGI [45]: > 100 µM | TGI [46]: 28 µM | TGI [47]: 67.5 µM | TGI [48]: > 100 µM | TGI [49]: 76.4 µM | TGI [50]: > 100 µM | TGI [51]: 59.4 µM | TGI [52]: > 100 µM | TGI [53]: 49.3 µM | TGI [54]: 48.1 µM | TGI [55]: > 100 µM | TGI [56]: 92.8 µM | TGI [57]: 35.8 µM

N#Cc1nsnc1-c1nc(-c2nsnc2C#N)nc(-c2nsnc2C#N)n1
TGI [1]: > 100 µM | TGI [2]: > 100 µM | TGI [4]: > 100 µM | TGI [5]: > 100 µM | TGI [6]: > 100 µM | TGI [7]: > 100 µM | TGI [8]: > 100 µM | TGI [10]: > 100 µM | TGI [11]: > 100 µM | TGI [12]: > 100 µM | TGI [13]: > 100 µM | TGI [14]: > 100 µM | TGI [15]: > 100 µM | TGI [16]: > 100 µM | TGI [17]: > 100 µM | TGI [18]: > 100 µM | TGI [19]: > 100 µM | TGI [20]: > 100 µM | TGI [21]: > 100 µM | TGI [22]: > 100 µM | TGI [23]: > 100 µM | TGI [24]: > 100 µM | TGI [26]: > 100 µM | TGI [27]: > 100 µM | TGI [28]: > 100 µM | TGI [29]: > 100 µM | TGI [30]: > 100 µM | TGI [31]: > 100 µM | TGI [32]: > 100 µM | TGI [33]: > 100 µM | TGI [58]: > 100 µM | TGI [34]: > 100 µM | TGI [35]: > 100 µM | TGI [36]: > 100 µM | TGI [38]: > 100 µM | TGI [39]: > 100 µM | TGI [40]: > 100 µM | TGI [41]: > 100 µM | TGI [42]: > 100 µM | TGI [44]: > 100 µM | TGI [45]: > 100 µM | TGI [46]: > 100 µM | TGI [47]: > 100 µM | TGI [48]: 94 µM | TGI [49]: > 100 µM | TGI [50]: > 100 µM | TGI [51]: > 100 µM | TGI [52]: > 100 µM | TGI [53]: > 100 µM | TGI [54]: > 100 µM | TGI [55]: > 100 µM | TGI [56]: > 100 µM | TGI [57]: > 100 µM

C=C1C(C[C@@H]2O[C@H]3C[C@H]4O[C@@]5(C[C@@H]6O[C@]7(C[C@H](C)[C@@H]8O[C@@H]9CC(C(O)CO)O[C@@H]9C[C@@H]8O7)C[C@H](C)[C@@H]6O5)C[C@H]4O[C@H]3[C@H](C)[C@H]2O)O[C@@H](CC[C@@H]2O[C@@H](CC[C@@]34CC5O[C@H]6C(O[C@H]7CC[C@H](CC(=O)OC)O[C@@H]7[C@@H]6O3)[C@H]5O4)CC2=C)C[C@H]1C (stereo partly drawn)
TGI [2]: > 1 µM | TGI [3]: > 1 µM | TGI [4]: > 1 µM | TGI [5]: 0.00316 µM | TGI [6]: > 1 µM | TGI [7]: > 1 µM | TGI [8]: 0.0559 µM | TGI [9]: > 1 µM | TGI [10]: > 0.292 µM | TGI [11]: > 1 µM | TGI [12]: > 1 µM | TGI [13]: > 1 µM | TGI [14]: > 1 µM | TGI [15]: > 1 µM | TGI [16]: > 1 µM | TGI [17]: 0.000124 µM | TGI [18]: > 1 µM | TGI [21]: > 1 µM | TGI [22]: > 1 µM | TGI [24]: > 1 µM | TGI [25]: > 0.783 µM | TGI [26]: > 1 µM | TGI [27]: > 1 µM | TGI [30]: > 1 µM | TGI [32]: > 1 µM | TGI [33]: 0.579 µM | TGI [58]: 0.0772 µM | TGI [34]: 0.0035 µM | TGI [36]: > 1 µM | TGI [37]: > 1 µM | TGI [39]: 0.0209 µM | TGI [40]: > 1 µM | TGI [41]: 0.0248 µM | TGI [42]: > 1 µM | TGI [43]: > 1 µM | TGI [45]: > 1 µM | TGI [59]: > 1 µM | TGI [49]: 0.0125 µM | TGI [53]: > 1 µM | TGI [55]: > 1 µM | TGI [56]: > 1 µM | TGI [57]: 0.000183 µM

CC1(C)OC[C@@]2([C@@H]3CC[C@@H](C3)C2(C)C)N1O
TGI [1]: > 100 µM | TGI [2]: > 100 µM | TGI [3]: > 100 µM | TGI [4]: > 100 µM | TGI [5]: > 100 µM | TGI [6]: > 100 µM | TGI [7]: > 100 µM | TGI [8]: > 100 µM | TGI [9]: > 100 µM | TGI [10]: > 100 µM | TGI [11]: > 100 µM | TGI [12]: > 100 µM | TGI [13]: > 100 µM | TGI [14]: > 100 µM | TGI [15]: > 100 µM | TGI [16]: > 100 µM | TGI [17]: > 100 µM | TGI [18]: > 100 µM | TGI [19]: > 100 µM | TGI [20]: > 100 µM | TGI [21]: > 100 µM | TGI [23]: > 100 µM | TGI [24]: > 100 µM | TGI [25]: > 100 µM | TGI [26]: > 100 µM | TGI [27]: > 100 µM | TGI [28]: > 100 µM | TGI [29]: > 100 µM | TGI [30]: > 100 µM | TGI [31]: > 100 µM | TGI [32]: > 100 µM | TGI [33]: > 100 µM | TGI [58]: > 100 µM | TGI [34]: > 100 µM | TGI [35]: > 100 µM | TGI [36]: > 100 µM | TGI [37]: > 100 µM | TGI [38]: > 100 µM | TGI [39]: > 100 µM | TGI [40]: > 100 µM | TGI [41]: > 100 µM | TGI [42]: > 100 µM | TGI [43]: > 100 µM | TGI [46]: > 100 µM | TGI [59]: > 100 µM | TGI [47]: > 100 µM | TGI [48]: > 100 µM | TGI [49]: > 100 µM | TGI [50]: > 100 µM | TGI [51]: > 100 µM | TGI [52]: > 100 µM | TGI [53]: > 100 µM | TGI [54]: > 100 µM | TGI [55]: > 100 µM | TGI [56]: > 100 µM | TGI [57]: > 100 µM
